Results published in patent publication US20040192652A1, “Pharmaceutical combinations and methods for the treatment of leukemia” (priority 2002, published 2004).
Counter-ions that a name gives are not always drawn.

Tests used:
[1] = tested on: KBM-5 chronic myeloid leukemia cells; assay: In vivo antitumor activity (survival) in mice bearing KBM-5 cells
Protocol: (§1) Three to five week-old ICR SCID female mice weighting 20-25 g were obtained from Taconic farms. They were acclimatized for a week prior to the experiment. The animals were maintained on a standard animals feed and drinking water ad libitum. Mice were housed in an air-conditioned room at the temperature of 22±1° C. and 50-70% humidity with a 12/12 h-light/dark cycle throughout the experiment.
(§2) Mice were irradiated (1×250 centigray; cGy) and injected i.p. with 2×10^7 or 2,4×10^7 KBM-5 or KBM-5R tumor cells, respectively. […] In primary experiments (with KBM-5 cells) or secondary experiments (with KBM-5R cells), tumor-bearing animals were randomised (8-10 per group and treated by Troxatyl™ i.p. at 5, 10, 20, or 25 mg/kg once a day for 5 consecutive days (days 20-24). Control (untreated) mice received saline. In third experiments (with KBM-5 cells), tumor bearing animals (6 per group) were treated by one of the following schemes:
(§3) Animals in complete remission, free of detectable tumor (negative for human DQα-gen) were considered cured.
(§4) LTS were electively sacrificed on Day 95 in single agent experiments or on Day 100 in combination treatment experiment.

[2] = tested on: KBM-5R chronic myeloid leukemia cells (STI-571 resistant); assay: In vivo antitumor activity (survival) in mice bearing KBM-5R cells; conditions: for ILS % / Median survival time / Rang survival time / T/C %: qd × 5; for LTS (long term survivors): qd × 5, sacrificed Day 95
Protocol: as §1, §2, §3, §4

KBM-5 cells = conditions: KBM5 cells
Protocol: (§5) Two human CML, Ph+, p210 Bcr-Abl expressing cell lines were used, namely, KBM-5 and KBM-7. KBM-5 represents cells derived from a patient in the blastic phase of CML and is remarkable for the absence of normal c-ABL. KBM-7 has been identified to be a human near-haploid cell line.
(§6) The cells were cultured in Iscove's modified Dulbecco's medium supplemented with 10% fetal calf serum (Invitrogen Corp., Carlsbad, Calif.) at 37° C. in atmosphere of 5% CO2 in air.
(§7) Briefly, cells were seeded in triplicate in 96-well microtiter plates (Falcon, USA) at a concentration of 4×10^5 cells/ml. After exposure to the drug(s) for 72 h, 20 μl of MTS solution were added to each well, the plates were incubated for additional 4 h at 37° C., and absorbance at 490 nm was measured.

KBM-7 cells = conditions: KBM7 cells
Protocol: as §5, §6, §7

[3] = KBM-5, primary experiment, 5 mg/kg ip, qd × 5
[4] = KBM-5, primary experiment, 10 mg/kg ip, qd × 5
[5] = KBM-5, primary experiment, 20 mg/kg ip, qd × 5
[6] = KBM-5, primary experiment, 25 mg/kg ip, qd × 5
[7] = KBM-5, third (combination) experiment, 10 mg/kg ip, qd × 5
[8] = KBM-5, third (combination) experiment, 25 mg/kg ip, qd × 5
[9] = KBM-5, third (combination) experiment, 50 mg/kg ip, bid × 10

Protocol for KBM5-STI^R1.0 cells: (§8) In vitro growth inhibition effect of adaphostin on leukemic cells was determined by measuring MTS (CellTiter 96®Aqueous One Solution Reagent, Promega Corporation, WI) dye absorbance by living cells. Briefly, cells were seeded in triplicate in 96-well microtiter plates (Falcon, USA) at a concentration of 4×10^5 cells/ml. After exposure to the drug(s) for 72 h, 20 μl of MTS solution were added to each well, the plates were incubated for additional 4 h at 37° C., and absorbance at 490 nm was measured.
Protocol for KBM7-STI^R1.0 cells: as §8

SMILES: Nc1ccn([C@@H]2CO[C@H](CO)O2)c(=O)n1 [Troxatyl ™, (−)-β-L-Dioxolane-Cytidine]
- ILS % [1, 3]: 57.09%
- Median survival time [1, 3]: 54 days
- Rang survival time [1, 3]: 46 to 66 days
- T/C % [1, 3]: 157.09%
- LTS (long term survivors) ([1]; KBM-5, primary experiment, 5 mg/kg ip, qd × 5, sacrificed Day 95): 1
- ILS % [1, 4]: 45.45%
- Median survival time [1, 4]: 50 days
- Rang survival time [1, 4]: 44 to 66 days
- T/C % [1, 4]: 145.45%
- ILS % [1, 5]: 33.82%
- Median survival time [1, 5]: 46 days
- Rang survival time [1, 5]: 36 to 58 days
- T/C % [1, 5]: 133.82%
- ILS % [1, 6]: 68.73%
- Median survival time [1, 6]: 58 days
- Rang survival time [1, 6]: 35 to 74 days
- T/C % [1, 6]: 168.73%
- ILS % [1, 7]: 50.90%
- Median survival time [1, 7]: 43.16 days
- Rang survival time [1, 7]: 38 to 50 days
- T/C % [1, 7]: 150.9%
- ILS % [1, 8]: 71.33%
- Median survival time [1, 8]: 49 days
- Rang survival time [1, 8]: 40 to 56 days
- T/C % [1, 8]: 171.33%
- ILS % ([2]; 5 mg/kg ip): 13.93%
- Median survival time ([2]; 5 mg/kg ip): 37.142 days
- Rang survival time ([2]; 5 mg/kg ip): 36 to 50 days
- T/C % ([2]; 5 mg/kg ip): 113.93%
- LTS (long term survivors) ([2]; 5 mg/kg ip): 2
- ILS % ([2]; 10 mg/kg ip): 50.64%
- Median survival time ([2]; 10 mg/kg ip): 49.11 days
- Rang survival time ([2]; 10 mg/kg ip): 36 to 69 days
- T/C % ([2]; 10 mg/kg ip): 150.64%
- ILS % ([2]; 20 mg/kg ip): 56.84%
- Median survival time ([2]; 20 mg/kg ip): 51.13 days
- Rang survival time ([2]; 20 mg/kg ip): 37 to 69 days
- T/C % ([2]; 20 mg/kg ip): 156.84%
- ILS % ([2]; 25 mg/kg ip): 54.66%
- Median survival time ([2]; 25 mg/kg ip): 50.42 days
- Rang survival time ([2]; 25 mg/kg ip): 35 to 69 days
- T/C % ([2]; 25 mg/kg ip): 154.66%
- LTS (long term survivors) ([2]; 25 mg/kg ip): 1

SMILES: Cc1ccc(NC(=O)c2ccc(CN3CCN(C)CC3)cc2)cc1Nc1nccc(-c2cccnc2)n1 [STI-571, imatinib mesylate]
- ILS % [1, 9]: 8.95%
- Median survival time [1, 9]: 31.16 days
- Rang survival time [1, 9]: 26 to 40 days
- response to STI-571 exposure (KBM-5 cells): G0/G1 cell cycle arrest
- response to STI-571 exposure (KBM-7 cells): apoptosis
- STI-571 concentration up to which cells still proliferated (KBM5-STI^R1.0 cells): up to 10 μM
- STI-571 concentration at which proliferation was almost completely abolished (KBM7-STI^R1.0 cells): 7.5 µM
